For assay [1], the target named is T1, RasGAP^232(mut) (R398E/K400E, C-SH2 mutant) (Homo sapiens, UniProt P20936, C236S/C261S/C372S/C402S/K400E/R398E).
T1 construct: (residues 174–444, termed RasGAP^232); hexahistidine (TEV-cleavable) (N, cleaved yes); made in house; host or cells: E. coli Rosetta (DE3)
T1 sequence (P20936 174-444 C236S/C261S/C372S/R398E/K400E/C402S): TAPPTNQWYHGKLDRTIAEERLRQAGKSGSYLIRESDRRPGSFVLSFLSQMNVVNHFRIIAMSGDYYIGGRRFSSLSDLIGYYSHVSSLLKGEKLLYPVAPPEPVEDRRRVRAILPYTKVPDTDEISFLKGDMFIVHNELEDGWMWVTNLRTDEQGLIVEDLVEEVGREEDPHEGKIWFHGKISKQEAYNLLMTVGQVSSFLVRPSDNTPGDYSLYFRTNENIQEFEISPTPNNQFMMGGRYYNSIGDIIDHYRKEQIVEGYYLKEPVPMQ
Nature of the assay: Isothermal titration calorimetry, C-SH2 mutant RasGAP^232(mut). It counts as binding. How it is done: One possibility for the difference in binding affinity of EphB4 compared to the other dually phosphorylated peptides is that only a single SH2 domain engages EphB4 at any time. This is supported by the observation that the Kd of binding, 2 μM, is similar to other reported individual SH2 phosphotyrosine interactions (for examples see ([60])) and the evidence of only one inflection point in the doubly phosphorylated EphB4–binding isotherm (Figs. 2B and S3). To assess this hypothesis, we generated two RasGAP^232 mutants that disrupt the phosphotyrosine-binding sites of either the N- or C-SH2 domains and conducted further ITC experiments. […] For the ‘FLVR-unique” C-terminal SH2, we introduced a double mutation R398E/K400E, to abrogate phosphotyrosine binding guided by our previous work ([52]), termed RasGAP^232(mut) (Fig. 2D). We additionally generated a double mutant of both SH2 domains, RasGAP^2(mut)32(mut), and purified each of these proteins (Fig. S2, B–D). […] We then assessed phosphopeptide binding of the single mutant SH2 domains. […] This is similar to the Kd of 2 ± 0.7 μM observed for titration of this peptide into WT RasGAP^232.
To attempt to parse the specificity of RasGAP for the more N- or C-terminal EphB juxtamembrane phosphotyrosines pY590 and pY596, we assessed the affinity of RasGAP^232(mut) for shorter synthesized EphB4 peptides corresponding to either of the two phosphotyrosines (Fig. 1C). […] Alternatively, the C-terminal SH2 may contribute to a second weaker interaction in a tandem interaction. […] This low-affinity interaction represents a primarily single N-SH2-dominant interaction.
Purified RasGAP^232 protein and solubilized peptides were dialyzed overnight against buffer containing 20 mM Tris pH 8, 250 mM NaCl in Slide-A-Lyzer 3 ml 10 kDa molecular weight cut off cassettes (Spectra-Por) and Micro Float-A-Lyzer 0.1 to 0.2 ml, 0.1 to […] molecular weight cut off devices (Spectra-Por), respectively. Protein and peptide concentrations were determined by A280 measured on a Nanodrop Lite (Thermo Fisher Scientific) instrument using extinction coefficients of 45,840 M^−1 cm^−1 for RasGAP^232 (and mutants), 917 M^−1 cm^−1 for the doubly phosphorylated EphB4 peptide, and 458.5 M^−1 cm^−1 for the singly phosphorylated EphB4 peptides as determined by ([74]). Dok1 peptide concentration was confirmed using Amino Acid Analysis performed at UC Davis Molecular Structure Facility. Samples were centrifuged for 10 min at 4 °C and degassed for 7 min using a Degassing Station (TA Instruments). ITC experiments were performed on a Nano ITC (TA Instruments) by loading protein into the 190 μl sample cell and titrating 20 times with 2.5 μl peptide in the titration syringe. Concentrations for sample cell and syringe for each trial are included in Table S1. The data were analyzed in NanoAnalyze software (TA Instrument) using blank (constant) and independent models (https://www.tainstruments.com/itcrun-dscrun-nanoanalyze-software/).

The target of assay [2] is T2, RasGAP^232 (p120RasGAP N-SH2, SH3 and C-SH2 domains, residues 174-444) (human, UniProt P20936 174-444, C236 | C261 | C372 | C402).
T2 construct: p120RasGAP (RASA1), human, UniProt P20936, residues 174-444 (N-SH2, SH3, C-SH2), with four cysteine to serine mutations; also called WT RasGAP^232; apo RasGAP^232; source: E. coli Rosetta (DE3), purified (Ni-NTA, TEV cleavage, anion exchange, SEC)
T2 sequence (looked up): T1 sequence (P20936 174-444 C236S/C261S/C372S/R398E/K400E/C402S) with E225R, E227K
Put plainly: ITC; protein in the 190 ul sample cell, titrated 20 times with 2.5 ul peptide from the syringe; 20 mM Tris pH 8, 250 mM NaCl; Nano ITC (TA Instruments); independent binding model. The conditions noted are these: both partners purified. Background: ITC needs no label: the signal is the heat of the interaction.

Assay [3] concerns the target T3, RasGAP^232(mut) (RasGAP^232 with R398E/K400E in the C-SH2 domain) (human, UniProt P20936 174-444, C236S | C261S | C372S | C402S | R398E | K400E).
T3 construct: p120RasGAP, human, UniProt P20936, residues 174-444; Made by site-directed mutagenesis of RasGAP^232, which holds the four cysteine to serine mutations; also called C-SH2 mutant; source: E. coli Rosetta (DE3), purified (same protocol as the WT counterpart); not shown: His6, N-terminal, cleaved
T3 sequence (looked up): T1 sequence (P20936 174-444 C236S/C261S/C372S/R398E/K400E/C402S)
Put plainly: ITC; RasGAP^232 protein (WT or mutant) in the 190 µl sample cell, peptide in the syringe, 20 injections of 2.5 µl; 20 mM Tris pH 8, 250 mM NaCl; Nano ITC (TA Instruments); blank (constant) and independent models; values of single trials, averages and stdev. The conditions noted are these: both partners purified.

The target in assay [4] is T4, RasGAP^232(mut) (RasGAP^232 with R398E/K400E in the C-SH2 domain) (human, UniProt P20936 174-444, R398E | K400E | C236 | C261 | C372 | C402).
T4 construct: p120RasGAP (RASA1), human, UniProt P20936, residues 174-444, mutant of RasGAP^232 in the C-SH2 domain; also called C-SH2 mutant; source: E. coli Rosetta (DE3), purified (same protocol as the WT: Ni-NTA, TEV cleavage, anion exchange, SEC)
T4 sequence (looked up): T1 sequence (P20936 174-444 C236S/C261S/C372S/R398E/K400E/C402S)
Nature of the assay: ITC; protein in the 190 ul sample cell, titrated 20 times with 2.5 ul peptide from the syringe; 20 mM Tris pH 8, 250 mM NaCl; Nano ITC (TA Instruments); independent binding model. The conditions noted are these: both partners purified.

The mark [5] stands for this setting: ITC, average of trials (Table S1).

Positions count from the first letter of the chain named. Where “and” joins values, the source holds several entries; their conditions need not be identical. Equal values may be shown once. Square brackets hold non-standard residues; d marks the D form. Peptide text beside a SMILES is read from it. pY = N[C@@H](Cc1ccc(OP(=O)(O)O)cc1)C(=O)O

On to `CC(=O)N[C@@H](CC(=O)O)C(=O)N1CCC[C@H]1C(=O)N[C@@H](Cc1ccccc1)C(=O)N[C@H](C(=O)N[C@@H](Cc1ccc(OP(=O)(O)O)cc1)C(=O)N[C@@H](CCC(=O)O)C(=O)N[C@@H](CC(=O)O)C(=O)N1CCC[C@H]1C(=O)N[C@@H](CC(N)=O)C(=O)N[C@@H](CCC(=O)O)C(N)=O)[C@@H](C)O` [pY596 EphB4] (Ac-DPFT[pY]EDPNE-NH2), for which the “weaker binding than the doubly phosphorylated EphB4 peptide” value in assay [1] (ITC Kd, singly versus doubly phosphorylated EphB4 peptide) is “about 10 fold”. The n in assay [1] (ITC stoichiometry, mean ± SD of trials) is listed as 0.6 ± 0.2. In assay [1] (setting [5]), the “-T∆S” value was -1.2 kcal/mol, the Ka was 0.05 µM⁻¹ and the “∆G” value is -6.38 kcal/mol. For the same molecule, in assay [1] (ITC, mean ± SD of trials), the ΔH was -5.26 kcal/mol and -5.26 ± 0.96 kcal/mol; the ΔS is 15 J/mol∗K and 15 ± 13 J/mol∗K. In assay [1] (trial 2, ITC), the “-T∆S” value is -1.58 kcal/mol, the “∆G” value is -6.36 kcal/mol, the “∆H” value was -4.8 kcal/mol and the “∆S” value came out at 22.0 J/mol*K. Besides, in assay [1] (trial 3, ITC), the “-T∆S” value was -0.048 kcal/mol, the Ka was found to be 0.05 µM⁻¹, the “∆G” value was -6.48 kcal/mol and the “∆H” value is -6.43 kcal/mol. The “∆S” value in assay [1] (trial 3, ITC) was 0.8 J/mol*K.

B1: doubly phosphorylated Dok1 peptide (residues 291-322, pY296 and pY315) (peptide)
peptide: Ac-SPPAL[pY]AEPLDSLRIAPCPSQDSL[pY]SDPLDST-NH2
SMILES: CC[C@H](C)[C@H](NC(=O)[C@H](CCCNC(=N)N)NC(=O)[C@H](CC(C)C)NC(=O)[C@H](CO)NC(=O)[C@H](CC(=O)O)NC(=O)[C@H](CC(C)C)NC(=O)[C@@H]1CCCN1C(=O)[C@H](CCC(=O)O)NC(=O)[C@H](C)NC(=O)[C@H](Cc1ccc(OP(=O)(O)O)cc1)NC(=O)[C@H](CC(C)C)NC(=O)[C@H](C)NC(=O)[C@@H]1CCCN1C(=O)[C@@H]1CCCN1C(=O)[C@H](CO)NC(C)=O)C(=O)N[C@@H](C)C(=O)N1CCC[C@H]1C(=O)N[C@@H](CS)C(=O)N1CCC[C@H]1C(=O)N[C@@H](CO)C(=O)N[C@@H](CCC(N)=O)C(=O)N[C@@H](CC(=O)O)C(=O)N[C@@H](CO)C(=O)N[C@@H](CC(C)C)C(=O)N[C@@H](Cc1ccc(OP(=O)(O)O)cc1)C(=O)N[C@@H](CO)C(=O)N[C@@H](CC(=O)O)C(=O)N1CCC[C@H]1C(=O)N[C@@H](CC(C)C)C(=O)N[C@@H](CC(=O)O)C(=O)N[C@@H](CO)C(=O)N[C@H](C(N)=O)[C@@H](C)O
notes: Dok1, UniProt Q99704, residues 291-322; also called pYpY Dok1; source: synthetic peptide, bought: GenScript
As to B1, in assay [2], the Kd (usually the free concentration of one partner at which half of the binding sites on the other are occupied at equilibrium, for simple one-to-one binding) came out at 0.03 ± 0.02 µM; the dH was -18.6 ± 0.717 kcal/mol; the stoichiometry N (commonly a count of units in the complex or per binding partner) stood at 0.8 ± 0.1.

B2: singly phosphorylated EphB4 peptide pY596 (peptide)
peptide: Ac-DPFT[pY]EDPNE-NH2
SMILES: CC(=O)N[C@@H](CC(=O)O)C(=O)N1CCC[C@H]1C(=O)N[C@@H](Cc1ccccc1)C(=O)N[C@H](C(=O)N[C@@H](Cc1ccc(OP(=O)(O)O)cc1)C(=O)N[C@@H](CCC(=O)O)C(=O)N[C@@H](CC(=O)O)C(=O)N1CCC[C@H]1C(=O)N[C@@H](CC(N)=O)C(=O)N[C@@H](CCC(=O)O)C(N)=O)[C@@H](C)O
notes: EphB4, UniProt P54760; also called pY596 EphB4; source: synthetic peptide, bought: GenScript
As for B2, in assay [3], the Ka was 40000 M⁻¹ and 50000 M⁻¹; the Kd is 24 µM and 22 µM and 18 µM; the “stoichiometry N” value is 0.7 and 0.8 and 0.4.

B3: singly phosphorylated EphB4 peptide pY596 (peptide)
peptide: Ac-DPFT[pY]EDPNE-NH2
SMILES: CC(=O)N[C@@H](CC(=O)O)C(=O)N1CCC[C@H]1C(=O)N[C@@H](Cc1ccccc1)C(=O)N[C@H](C(=O)N[C@@H](Cc1ccc(OP(=O)(O)O)cc1)C(=O)N[C@@H](CCC(=O)O)C(=O)N[C@@H](CC(=O)O)C(=O)N1CCC[C@H]1C(=O)N[C@@H](CC(N)=O)C(=O)N[C@@H](CCC(=O)O)C(N)=O)[C@@H](C)O
notes: EphB4 juxtamembrane region, UniProt P54760; also called pY596 EphB4; source: synthetic peptide, bought: GenScript
Take B3: in assay [4], the equilibrium dissociation constant (Kd) came to 21 ± 3 µM, the dH was -5.26 ± 0.956 kcal/mol and the “stoichiometry N” value is 0.6 ± 0.2.

B4: singly phosphorylated EphB4 peptide pY590 (residues 586-595) (peptide)
peptide: Ac-GTKV[pY]IDPFT-NH2
SMILES: CC[C@H](C)[C@H](NC(=O)[C@H](Cc1ccc(OP(=O)(O)O)cc1)NC(=O)[C@@H](NC(=O)[C@H](CCCCN)NC(=O)[C@@H](NC(=O)CNC(C)=O)[C@@H](C)O)C(C)C)C(=O)N[C@@H](CC(=O)O)C(=O)N1CCC[C@H]1C(=O)N[C@@H](Cc1ccccc1)C(=O)N[C@H](C(N)=O)[C@@H](C)O
notes: EphB4 juxtamembrane region, UniProt P54760, residues 586-595; also called pY590 EphB4; source: synthetic peptide, bought: GenScript
Consider B4, for which, in assay [4], the Kd was found to be 16 ± 7 µM, the dH is -3.7 kcal/mol and the “stoichiometry N” value came out at 0.8 ± 0.1.

B5: singly phosphorylated EphB4 peptide pY590 (peptide)
peptide: Ac-GTKV[pY]IDPFT-NH2
SMILES: CC[C@H](C)[C@H](NC(=O)[C@H](Cc1ccc(OP(=O)(O)O)cc1)NC(=O)[C@@H](NC(=O)[C@H](CCCCN)NC(=O)[C@@H](NC(=O)CNC(C)=O)[C@@H](C)O)C(C)C)C(=O)N[C@@H](CC(=O)O)C(=O)N1CCC[C@H]1C(=O)N[C@@H](Cc1ccccc1)C(=O)N[C@H](C(N)=O)[C@@H](C)O
notes: EphB4, UniProt P54760, residues 586-595; also called pY590 EphB4; source: synthetic peptide, bought: GenScript
Regarding B5, in assay [3], the dissociation constant Kd is 24.2 µM and 14.6 µM and 9.7 µM; the “stoichiometry N” value is 0.7 and 0.8.

Values taken from publication PMC10470053, “Diverse p120RasGAP interactions with doubly phosphorylated partners EphB4, p190RhoGAP, and Dok1” (The Journal of Biological Chemistry, 2023).
